Measured values from patent US20100041892A1, “Therapeutic agent for diabetes” (priority 2005, published 2010).

Row | melting point [°C] | SMILES
1 | 126.5 to 128.5 | CCCCCS(=O)(=O)NC(=O)/C=C/c1ccc(OCC2CCCO2)cc1Oc1ncc(C(F)(F)F)cc1Cl (stereo not drawn) [Example 195, (2E)-3-[2-{[3-chloro-5-(trifluoromethyl)pyridin-2-yl]oxy}-4-(tetrahydrofuran-2-ylmethoxy)phenyl]-N-(pentylsulfonyl)acrylamide]
2 | 139 to 140 | COCOc1cc(/C=C/S(=O)(=O)NC(=O)OC(C)(C)C)n(Cc2ccc(Cl)cc2Cl)n1 [Example 200, tert-butyl-({(E)-2-[1-(2,4-dichlorobenzyl)-3-(methoxymethoxy)-1H-pyrazol-5-yl]vinyl}sulfonyl)carbamate]
3 | 114 to 115 | COCCCS(=O)(=O)NC(=O)CCc1ccc(OC(C)C)cc1Oc1ncc(C(F)(F)F)cc1Cl [Example 202, 3-(2-{[3-chloro-5-(trifluoromethyl)pyridin-2-yl]oxy}-4-isopropoxyphenyl)-N-[(3-methoxypropyl)sulfonyl]propanamide]
4 | 123 to 123.5 | COCCOc1ccc(CCCOC(=O)NS(=O)(=O)NCCC(C)C)c(Oc2ncc(C(F)(F)F)cc2Cl)c1 [Example 203, 3-[2-{[3-chloro-5-(trifluoromethyl)pyridin-2-yl]oxy}-4-(2-methoxyethoxy)phenyl]propyl {[(3-methylbutyl)amino]sulfonyl}carbamate]
5 | 110 to 113 | COCCOc1ccc(CCCOC(=O)NS(=O)(=O)NCCc2ccccc2)c(Oc2ncc(C(F)(F)F)cc2Cl)c1 [Example 206, 3-[2-{[3-chloro-5-(trifluoromethyl)pyridin-2-yl]oxy}-4-(2-methoxyethoxy)phenyl]propyl {[(2-phenylethyl)amino]sulfonyl}carbamate]
6 | 102 to 103 | CCCCN(C(=O)CCc1ccc(OCCOC)cc1Oc1ncc(C(F)(F)F)cc1Cl)S(N)(=O)=O [Example 212, N-(aminosulfonyl)-N-butyl-3-[2-{[3-chloro-5-(trifluoromethyl)pyridin-2-yl]oxy}-4-(2-methoxyethoxy)phenyl]propanamide]
7 | 101 to 101.1 | COCCOc1ccc(CCC(=O)N(CCOC)S(N)(=O)=O)c(Oc2ncc(C(F)(F)F)cc2Cl)c1 [Example 213, N-(aminosulfonyl)-3-[2-{[3-chloro-5-(trifluoromethyl)pyridin-2-yl]oxy}-4-(2-methoxyethoxy)phenyl]-N-(2-methoxyethyl)propanamide]
8 | 120 to 122 | CCCCCNS(=O)(=O)NC(=O)/C=C/c1ccc(OCCOC)cc1Oc1ncc(C(F)(F)F)cc1Cl [Example 215, (2E)-3-[2-{[3-chloro-5-(trifluoromethyl)pyridin-2-yl]oxy}-4-(2-methoxyethoxy)phenyl]-N-[(pentylamino)sulfonyl]acrylamide]
9 | 70.4 to 70.5 | CCCCCS(=O)(=O)NC(=O)CCc1ccc(OCCOC)cc1Oc1ccccc1 [Example 219, 3-[4-(2-methoxyethoxy)-2-phenoxyphenyl]-N-(pentylsulfonyl)propanamide]
10 | 147 to 147.5 | C/C(=C\c1ccc(OC(C)C)cc1Oc1ncc(C(F)(F)F)cc1Cl)C(=O)NS(=O)(=O)NCCc1ccccc1 [Example 220, (2E)-3-(2-{[3-chloro-5-(trifluoromethyl)pyridin-2-yl]oxy}-4-isopropoxyphenyl)-2-methyl-N-{[(2-phenylethyl)amino]sulfonyl}acrylamide]
11 | 120 to 121 | COCCCNS(=O)(=O)NC(=O)/C(C)=C/c1ccc(OC(C)C)cc1Oc1ncc(C(F)(F)F)cc1Cl [Example 221, (2E)-3-(2-{[3-chloro-5-(trifluoromethyl)pyridin-2-yl]oxy}-4-isopropoxyphenyl)-N-{[(3-methoxypropyl)amino]sulfonyl}-2-methylacrylamide]
12 | 137.5 to 137.7 | C/C(=C\c1ccc(OC(C)C)cc1Oc1ncc(C(F)(F)F)cc1Cl)C(=O)NS(=O)(=O)NCCOC(C)C [Example 222, (2E)-3-(2-{[3-chloro-5-(trifluoromethyl)pyridin-2-yl]oxy}-4-isopropoxyphenyl)-N-{[(2-isopropoxyethyl)amino]sulfonyl}-2-methylacrylamide]
13 | 121 to 122 | COCCCNS(=O)(=O)NC(=O)/C(C)=C/c1ccc(OCCOC)cc1Oc1ncc(C(F)(F)F)cc1Cl [Example 227, (2E)-3-[2-{[3-chloro-5-(trifluoromethyl)pyridin-2-yl]oxy}-4-(2-methoxyethoxy)phenyl]-N-{[(3-methoxypropyl)amino]sulfonyl}-2-methylacrylamide]
14 | 85 to 85.5 | COCCOc1ccc(/C=C/C(=O)NS(=O)(=O)NCCc2ccccc2)c(Oc2ncc(C(F)(F)F)cc2Cl)c1 [Example 228, (2E)-3-[2-{[3-chloro-5-(trifluoromethyl)pyridin-2-yl]oxy}-4-(2-methoxyethoxy)phenyl]-N-{[(2-phenylethyl)amino]sulfonyl}acrylamide]
15 | 182 to 182.5 | COCCOc1ccc(/C=C/C(=O)NS(=O)(=O)c2ccc(Cl)cc2)c(Oc2ncc(C(F)(F)F)cc2Cl)c1 [Example 229, (2E)-N-[(4-chlorophenyl)sulfonyl]-3-[2-{[3-chloro-5-(trifluoromethyl)pyridin-2-yl]oxy}-4-(2-methoxyethoxy)phenyl]acrylamide]
16 | 145.7 to 145.8 | COCCOc1ccc(/C=C(\C)C(=O)NS(=O)(=O)c2ccc(Cl)cc2)c(Oc2ncc(C(F)(F)F)cc2Cl)c1 [Example 230, (2E)-N-[(4-chlorophenyl)sulfonyl]-3-[2-{[3-chloro-5-(trifluoromethyl)pyridin-2-yl]oxy}-4-(2-methoxyethoxy)phenyl]-2-methylacrylamide]
17 | 125.3 to 126.5 | C/C(=C\c1ccc(OC(C)C)cc1Oc1ncc(C(F)(F)F)cc1Cl)C(=O)NS(=O)(=O)NCC1CCCO1 (stereo not drawn) [Example 231, (2E)-3-(2-{[3-chloro-5-(trifluoromethyl)pyridin-2-yl]oxy}-4-isopropoxyphenyl)-2-methyl-N-{[(tetrahydrofuran-2-ylmethyl)amino]sulfonyl}acrylamide]
18 | 157 to 158 | COCCOc1ccc(/C=C/C(=O)NS(=O)(=O)c2cccc(Cl)c2)c(Oc2ncc(C(F)(F)F)cc2Cl)c1 [Example 232, (2E)-N-[(3-chlorophenyl)sulfonyl]-3-[2-{[3-chloro-5-(trifluoromethyl)pyridin-2-yl]oxy}-4-(2-methoxyethoxy)phenyl]acrylamide]
19 | 186.3 to 186.5 | COCCOc1ccc(/C=C/C(=O)NS(=O)(=O)c2ccc(C(F)(F)F)cc2)c(Oc2ncc(C(F)(F)F)cc2Cl)c1 [Example 234, (2E)-3-[2-{[3-chloro-5-(trifluoromethyl)pyridin-2-yl]oxy}-4-(2-methoxyethoxy)phenyl]-N-{[4-(trifluoromethyl)phenyl]sulfonyl}acrylamide]
20 | 168 to 169 | COCCOc1ccc(/C=C/C(=O)NS(=O)(=O)c2ccccc2Cl)c(Oc2ncc(C(F)(F)F)cc2Cl)c1 [Example 235, (2E)-N-[(2-chlorophenyl)sulfonyl]-3-[2-{[3-chloro-5-(trifluoromethyl)pyridin-2-yl]oxy}-4-(2-methoxyethoxy)phenyl]acrylamide]
21 | 102.5 to 106.5 | COCCOc1ccc(/C=C/C(=O)NS(=O)(=O)c2ccc(C)cc2)c(Oc2ncc(C(F)(F)F)cc2Cl)c1 [Example 236, (2E)-3-[2-{[3-chloro-5-(trifluoromethyl)pyridin-2-yl]oxy}-4-(2-methoxyethoxy)phenyl]-N-[(4-methylphenyl)sulfonyl]acrylamide]
